The values below come from patent US9096499B2, “Compounds for treatment of cell proliferative diseases” (Board of Regents, The University of Texas System, priority 2003, dated 2015).

Entries after “also recorded” stand apart in the source; their conditions may differ.

The test system of assay [1] is OCI MM cells. Kind of assay: MTT cell growth and survival assay, OCI MM cells. As to conditions: 72 hours; for IC50: MTT assay; for Growth and survival of OCI cells (in words): MTT, FIG. 2B/3B. Format: cell-based. The protocol: (§1) To determine the effect of AG and WP compounds on MM cell growth/survival, MM cells were incubated with the indicated concentration of AG or WP for 72 hours before cell growth and survival were estimated by MTT assay.
(§2) To determine the effect of AG and WP compounds on MM cell growth/survival MM cells were incubated with the indicated concentration of AG or WP for 72 hours before cell growth and survival were estimated by MTT assay.
In general terms: Formazan colour is commonly taken as a measure of viable cells.

Assay [2] relates to MM-1 MM cells. Kind of assay: MTT cell growth and survival assay, MM-1 MM cells. The format is cell-based. As to conditions: for IC50 / Growth and survival of MM1 cells (in words): 72 hours; for IC50: MTT assay, read-out: IC50 (μM) MM1; for Growth and survival of MM1 cells (in words): MTT, FIG. 2A/3A. As to the method: as §1, §2
Assay [3] has as its system U266 MM cells. Kind of assay: MTT cell growth and survival assay, U266 MM cells. The format is cell-based. As to conditions: 72 hours; for Growth and survival of U266 cells (in words): MTT, FIG. 2C/3C; for IC50: Homo sapiens, U-266, MTT assay. The protocol: as §1, §2
Assay [4] concerns c-myc. Kind of assay: c-myc protein expression by immunoblot in MM cells. The format is cell-based. Also noted: key to C-Myc: (inhibition = ↓); (no effect) = —. As to conditions: for C-Myc: c-myc downregulation, immunoblot. As to the method:
To determine the effect of compounds on both Stat3 activation and c-myc protein expression MM-1, OCI-My5 and U266 cells were incubated with 25 μM of AG1801, AG490, WP1038, WP1039, WP1051, or WP1052 for 2 hours before cells were stimulated with 2 ng/ml IL-6 for 10 min. Cell lysates were prepared and immunoblotted for p-Stat3, Stat3, c-myc and actin (as a control).
(§3) To determine the temporal effects and mechanism of action of AG490 and AG1801 action on c-myc expression in MM cells, MM-1 cells were incubated with 0, 25, or 50 μM of AG490 or AG1801 and harvested at 30, 60, or 120 min. Lysates were immunoblotted for c-myc or actin as a protein loading control. […] Semi-quantitative PCR was used to measure changes in c-myc mRNA extracted from cells treated for 30 min with AG1801 at 25 μM. GAPDH PCR was used as a control.
These compounds were evaluated for their signal inhibitory and anti-proliferative/apoptotic properties on multiple myeloma, lymphoma and chronic myelogenous leukemia cell lines. WP1015, WP1034, AG1801, and AG490 were tested across a range of concentrations (6,12, and 25 μM) for their ability to inhibit c-myc expression using immunoblots.
These immunoblots tested a range of concentrations (1.56-25 μM for WP compounds) and used β-actin as a control.
For orientation: Immunoblotting shows a protein as a band on a membrane.

Assay [5] concerns Stat3. Kind of assay: IL-6 mediated Stat3 activation (p-Stat3 immunoblot) in MM cells. Format: cell-based. Also noted: key to P-Stat 3: (inhibition = ↓); (no effect) = —. The settings on record: for P-Stat 3: Stat3 inhibition, immunoblot. The protocol:
(§4) To examine the effect of newly synthesized AG and WP compounds on cytokine-mediated Stat activation, multiple myeloma (MM-1) cells were pretreated with AG490 or AG1801 at 2.5, 12, and 25 μM concentrations (for 2 hr) before stimulating cells with IL-6 or IFN-α for 10 min. Stat3 and Stat1 expression and activation were examined by immunoblotting.
To determine the effect of compounds on both Stat3 activation and c-myc protein expression MM-1, OCI-My5 and U266 cells were incubated with 25 μM of AG1801, AG490, WP1038, WP1039, WP1051, or WP1052 for 2 hours before cells were stimulated with 2 ng/ml IL-6 for 10 min. Cell lysates were prepared and immunoblotted for p-Stat3, Stat3, c-myc and actin (as a control). Both Stat3 activation and c-myc expression were effected by WP and AG compounds.

Assay [6] relates to MM colonies from bone marrow aspirates of MM patients. Put plainly: Primary MM colony formation in methyl-cellulose. The format is cell-based, human. As to conditions: 12 μM, 7 to 10 days. The protocol:
To determine whether these compounds effect primary MM colony growth bone marrow aspirates from MM patients were partially-purified by magnetic bead separation and analyzed for immunoglobulin heavy-chain gene rearrangement by PCR. Cells were grown as colonies in methyl-cellulose in the presence or absence of AG compound as noted for 7 to 10 days. Control colonies were examined for Ig heavy chain gene rearrangement to confirm the clonal nature of the population.

The subject of assay [7] is OCI-My5 cells. Put plainly: Caspase activation and PARP cleavage in OCI-My5 cells. Format: cell-based. As to conditions: 12.5 and 25 μM. As to the method: To determine whether AG1801 effects caspase activation in MM cells, OCI-My5 cells were treated as described above before cell lysates were examined for casapase activation and PARP cleavage. […] At 12.5 and 25 μM, AG490 was ineffective in caspase activation and PARP clevage in these cells.

In assay [8] the test system is c-myc mRNA. Kind of assay: Semi-quantitative PCR of c-myc mRNA in MM-1 cells. Format: cell-based. As to conditions: 25 μM, 30 min. The protocol:
as §3

For assay [9], the system named is IFN-α signaling. Kind of assay: IFN-α signaling (Stat1) immunoblot in MM-1 cells. The format is cell-based. The settings on record: 12 and 25 μM, IFN-α 10 min. The protocol: as §4
In assay [10] the test system is c-myc/Stat3. Kind of assay: Stat3/c-myc inhibitory activity in MM-1 cells (FIG. 7). Format: cell-based. An excerpt:
An improved inhibition of c-myc/Stat3 by WP1066, WP1130, and WP1129 was observed (FIG. 7). The compounds were compared with regard to their Stat3/c-myc inhibitory activity in MM-1 cells.

The subject of assay [11] is c-myc. Kind of assay: c-myc protein immunoblot in LP non-Hodgkin lymphoma cells. Format: cell-based. As to conditions: LP cells, 3-25 μM. As to the method: Additional cell types were examined for response to treatment with WP1066.
(§5) Further studies were conducted to determine the dose and time dependent effects of these new compounds on IL-6 mediated Stat3 activation, c-myc protein expression and anti-proliferative of LP and other cell types.

The subject of assay [12] is Stat3. Kind of assay: IL-6 mediated Stat3 activation immunoblot in LP cells. Format: cell-based. As to conditions: 3-25 μM. The protocol:
as §5

On to `N#C/C(=C\c1ccc([N+](=O)[O-])cc1)C(=O)NCc1ccccc1` [AG 1801], for which, in assay [1], the IC50 (as a rule, the concentration at which inhibition is half-maximal) was 12 µM; the “Growth and survival of OCI cells (in words)” value is “effective in reducing the growth and survival; also recorded: demonstrated increased potency compared to AG490”. Also, in assay [2], the IC50 came out at 7.5 µM; the “Growth and survival of MM1 cells (in words)” value is “effective in reducing the growth and survival; also recorded: demonstrated increased potency compared to AG490”. Moreover, in assay [3], the “Growth and survival of U266 cells (in words)” value is “effective in reducing the growth and survival; also recorded: demonstrated increased potency compared to AG490”; the IC50 is 9 µM. The “c-myc expression, temporal effects” value in assay [4] (MM-1 cells, 25 and 50 μM, 30, 60, 120 min) is “rapidly reduced c-myc expression”. Besides, the C-Myc entry in assay [4] is “↓”. In addition, the “Suppression of IL-6 signaling (Stat3 activation)” value in [5] (MM-1 cells, 2 hr pretreatment, 12 and 25 μM, IL-6 10 min) is “effective in suppressing IL-6 signaling”. Further, the “P-Stat 3” value in assay [5] is recorded as “↓”. In addition, the “Inhibition of MM colony formation” value in assay [6] is “completely inhibited MM colony formation”. Moreover, in assay [7], the “Caspase activation (caspase 3 and caspase 8)” value was “activated both upstream and downstream caspases”; the PARP cleavage result is recorded as “increased PARP clevage”. Further, the “c-myc mRNA expression” value in assay [8] is “minimal effects”. Besides, the “Effect on IFN-α signaling” value in [9] is “without effecting IFN-α”.

Regarding `C[C@@H]1C[C@@H]([C@H](O)CC2CC(=O)NC(=O)C2)C(=O)[C@@H](C)C1` [CHX, cycloheximide, reference compound], the “Suppression of c-myc protein expression” value in [4] (1.56-25 μM WP compounds, CHX 0-30 min at much higher concentrations) is on record as “did not result in the rapid reduction of c-myc”.

As to `CCC[C@H](NC(=O)/C(C#N)=C/c1cccc(Br)n1)c1ccccc1` [WP1130], the “IC50 against MM-1 myeloma relative to WP1066” value in assay [2] (FIG. 6) is “even better than compound WP1066”. Also, the “Inhibition of c-myc/Stat3” value in assay [10] was “Strong inhibition”.

In the case of `N#C/C(=C\c1cccc(Br)n1)C(=O)NCc1ccccc1` [WP 1015], the IC50 in assay [2] amounted to 1.9 µM. Further, in assay [4] (6, 12, 25 μM, AG490 up to 50 μM), the “Inhibition of c-myc protein expression” value was “more active than previously synthesized WP compounds”. For the same compound, the C-Myc entry in assay [4] was “↓”. Moreover, the “Inhibition of Stat3 phosphorylation” value in assay [5] (MM-1 cells) was “more effective in inhibiting Stat3 phosphorylation”. The c-myc expression entry in [11] was “reduced c-myc expression”. The “IL-6 mediated Stat3 activation” value in [12] was “blocked IL-6 mediated Stat3 activation”.

Take `C[C@@H](NC(=O)/C(C#N)=C/c1ccc([N+](=O)[O-])cc1)c1ccccc1` [WP 1034]: in assay [1], the IC50 is 6.3 µM; the “Growth and survival of OCI cells (in words)” value is “effective in reducing the growth and survival; also recorded: demonstrated increased potency compared to AG490”. In assay [2], the IC50 came to 3.5 µM; the “Growth and survival of MM1 cells (in words)” value was “effective in reducing the growth and survival; also recorded: demonstrated increased potency compared to AG490”. In [3], the “Growth and survival of U266 cells (in words)” value was “effective in reducing the growth and survival; also recorded: demonstrated increased potency compared to AG490”; the midpoint of inhibition, the IC50, lay at 4.5 µM. Further, the C-Myc result in assay [4] is “↓”.

As to `C[C@@H](NC(=O)/C(C#N)=C/c1ccc([N+](=O)[O-])c(O)c1)c1ccccc1` [WP 1038], the IC50 in [1] is > 12.5 µM; in assay [2], 6.2 µM; in assay [3], 11.8 µM. Also, in assay [4], the C-Myc result is on record as “↓”. For the same compound, in [5], the “P-Stat 3” value is “↓”.

On to `C[C@H](NC(=O)/C(C#N)=C/c1ccc([N+](=O)[O-])cc1)c1ccccc1` [WP 1050], for which, in assay [1], the IC50 was > 12.5 µM; the “Growth and survival of OCI cells (in words)” value is listed as “demonstrated increased potency compared to AG490”. Moreover, in assay [2], the IC50 is 2.1 µM; the “Growth and survival of MM1 cells (in words)” value was “demonstrated increased potency compared to AG490”. In [3], the “Growth and survival of U266 cells (in words)” value was “demonstrated increased potency compared to AG490”; the IC50 came out at 5 µM. For the same compound, in assay [4], the C-Myc entry is “↓”.

As to `C[C@H](NC(=O)/C(C#N)=C/c1ccc([N+](=O)[O-])c(O)c1)c1ccccc1` [WP 1051], the IC50 is > 12.5 µM in assay [1], 5.5 µM in assay [2] and 11.1 µM in [3]. For the same compound, the C-Myc entry in [4] was “↓”. The “P-Stat 3” value in assay [5] is “↓”.

As for `C[C@H](NC(=O)/C(C#N)=C/c1ccccn1)c1ccccc1` [WP 1065], the IC50 in assay [2] worked out at 3 µM.

As to `N#C/C(=C\c1cc(O)ccc1[N+](=O)[O-])C(=O)NCc1ccccc1` [WP 1073], the IC50 in [2] is > 2.5 µM.

On to `N#C/C(=C\c1cccc([N+](=O)[O-])c1)C(=O)NCc1ccccc1` [WP 1074], for which the IC50 in assay [2] is > 2.5 µM.

For `N#C/C(=C\c1cccnc1)C(=O)NCc1ccccc1` [WP 1075], the IC50 in [2] is > 2.5 µM.

With `CN(C)c1ccc(/C=C(\C#N)C(=O)NCc2ccccc2)c([N+](=O)[O-])c1` [WP 1076], the IC50 in assay [2] is > 2.5 µM.

With `N#C/C(=C\c1ccc(Cl)c([N+](=O)[O-])c1)C(=O)NCc1ccccc1` [WP 1077], the IC50 in [2] came out at 2.5 µM.
